Experimental findings from patent publication US20190388377A1, “COMPOSITIONS AND METHODS FOR THE TREATMENT OF LIVER DISEASES AND DISORDERS” (AXCELLA HEALTH INC., priority 2018, published 2019) are described below.

In experiment [1] the test system is primary human hepatocytes. Put plainly: Intracellular lipid accumulation after 72 h by fluorescence microscopy, PHH model for NASH, Example 2. The class given is cell-based. Particulars: FFA+TNFα; for Lipid Median (median fold change from control): 72 h. The method, then:
(§1) PHH from two healthy human donors (Lonza, TRL) were seeded on day 0 at density of 6e04 cells in 96 well optical microplates (Thermofisher) in hepatocyte plating media (William's E medium, WEM) (Gibco) supplemented with 10% heat-inactivated FBS (Atlanta Bio), 2 mM Glutamax (Gibco), and 0.2% Primocin (InVivoGen) and incubated for 6 hours at 37° C., 5% CO2. After 6 hours, cells were washed twice and incubated overnight at 37° C., 5% CO2 with Hepatocytes defined medium (Corning) supplemented with 2 mM Glutamax (Gibco), and 1× Penicillin/Streptomycin. On day 1, cells were washed twice and incubated for 24 h in the hepatocyte culture media in the same conditions described above.
(§2) On day 2, cells were washed twice with DPBS 1× (Gibco) to remove excess amino acids and maintained in pretreatment media (1×HMDB, a defined custom amino acid concentration based on the mean physiological concentrations in blood, in WEM±supplemental amino acids): • a. Amino acid-free WEM (US Biologicals) supplemented with 11 mM Glucose (Sigma), 0.272 mM Sodium Pyruvate (Sigma), 1× P/S (Gibco) and containing 1×HMDB with no supplemental amino acids; or • b. The same media described above 1×HMDB WEM with supplemental amino acid and amino acid combination treatments at various concentrations. Cells were maintained in the defined media (a. & b.) for 24 hours at 37° C., 5% CO2. The HMDB values are published in the Human Metabolome Database (Wishart D S, Tzur D, Knox C, et al., HMDB: the Human Metabolome Database. Nucleic Acids Res. 2007 January; 35 (Database issue):D521-6. 17202168; which is hereby incorporated by reference in its entirety). Co-Treatment with Free Fatty Acids and Amino Acids Combination
(§3) After 24 h pre-treatment, cells maintained in the pretreatment media±supplemental amino acids (section (a. & b.) described above) were exposed to free fatty acids (FFA) at 250 uM with a ratio of 2:1 (Oleate:Palmitate) supplemented with TNF-α (Thermofisher) at 1 ng/ml. Cells were incubated with the FFAs mixture (FFAs+TNF-α)±supplemental amino acids treatments for 24 hours at 37° C., 5% CO2. After 24 hours incubation, media was removed for cytokine analysis and replaced by fresh media containing the same conditions described above (FFAs mixture±supplemental amino acids treatments). Cells were incubated for an additional 48 hours for a total of 72 hours of FFA and TNF-α stimulation. After 72 hours of incubation, media was removed for albumin and urea analysis and the cells were fixed for nuclei and lipid staining.
After 72 hours, cells were washed twice in 100 ul PBS 1× (Gibco), fixed with 4% Paraformaldehyde, and washed twice with PBS 1× (100 ul). After fixation, lipids were stained with HCS LipidTOX Red Neutral (Thermofisher Scientific) diluted 1000× and nuclei were stained with Hoechst 3342 (Life Technologies) diluted to 4 ug/ml. The LipidTOX™ neutral lipid stain has an extremely high affinity for neutral lipid droplets that was detected by fluorescence microscopy using a high content imager (Molecular Devices). Data was normalized to the cell concentration determined by nuclei count. Images were analyzed and total lipid area was calculated using granularity module in MetaXpress 6 software. Data is reported as median fold change from control, statistical analysis was done using t-Test.

The next experiment has as its system Urea. Put plainly: Urea production after 72 h by urea nitrogen (BUN) colorimetric assay, PHH model, Example 2. The format is cell-based, human. The settings on record: FFA+TNFα. The procedure:
as §1, §2, §3
Urea was measured as an indicator of hepatocytes functionality by urea nitrogen direct assay (StanBio). Cell supernatant was added to the BUN color reagent and BUN acid reagent at 1(color):2(acid) ratio. Incubate the cell supernatant with BUN reagent for 12 min at 100° C. then for 5 min at 4° C. Read absorbance at 520 nm. Data was normalized to the control. Data is reported as median fold change from control, statistical analysis was done using t-Test.

Experiment [2] relates to alpha smooth muscle actin (αSMA). In words: HSC activation by alpha SMA immunostaining, TGFβ1-stimulated hepatic stellate cells. The format is cell-based, human. The procedure:
Primary human hepatic stellate cells were obtained from Samsara Sciences. Cells from three different donors were grown in Complete HSC Medium to ˜80% confluence in T75 or T150 flasks below passage 10 were seeded into sterile, collagen I coated, 96-well optical plastic microplates (ThermoScientific) and incubated overnight at 37° C., 5% CO2 in a humidified incubator in DMEM with 2% Fetal Bovine Serum and 1% Antimycotic. […] After 24 hours of stimulus, supernatant was removed and used to measure Procollagen III and cells were then washed and fixed with 4% paraformaldehyde for further staining.
Procollagen III, an important biomarker of fibrosis was measured by ELISA (Human PCIII Elisa Kit, G-Biosciences) following the manufacturer's recommendations. Fixed cells with 4% paraformaldehyde were permeabilized with 0.1% Triton X-100 then immunostained for alpha SMA and labeled for EdU incorporation.
Cells were imaged using ImageXpress micro confocal high content imager (Molecular Devices). […] Image analysis was performed using MetaXpress version 6.2.3.733 (Molecular Devices).
Fixed cells immunostained for alpha smooth muscle actin (αSMA) were analyzed and stained area was normalized to total nuclei count. Fold change were calculated relative to the baseline amino acid (1×HMDB) condition stimulated with 3 ng/mL TGFβ1.

In the next experiment the test system is TNFa. Put plainly: TNFa secretion by ELISA, LPS-treated primary human M1 macrophages, Example 5. The format is cell-based. The method, then:
Primary human PMBC derived macrophages were seeded on day 0 at 3.0E4 cells per well in 96-well microplates (ThermoFisher) in Dulbecco's Modified Eagle Medium (DMEM) (Gibco) supplemented with penicillin-streptomycin (Hyclone) and 10% heat inactivated fetal bovine serum (HI-FBS) (Atlanta Bio) and incubated overnight at 37° C., 5% CO2. On day 1, cells were washed once with 150 uL per well DPBS (Gibco) and treated with 75 uL of: • a. Amino acid free DMEM (US Biologicals) containing a defined custom amino acid concentration based on the mean physiological concentrations in blood based on values published in the Human Metabolome Database (HMDB), with 6 mM glucose, 1 mM sodium pyruvate, 10 mM HEPES, 0.2% primocin (InVivoGen); or • b. The same media described above with supplemental amino acid and amino acid combination treatments at various concentrations. […]
On day 3, the supernatant was collected and immediately frozen in −80° C. freezer. Cells were washed once with 150 uL DPBS and viability was assessed using the WST-8 Cell Proliferation Cytotoxicity Assay (Dojindo). […] Protein levels in supernatant samples were analyzed by ELISA for IL-6 and TNFa using commercially available kits (R&D Systems) according to manufacturer-supplied protocols.

Structures are written as SMILES.

In the case of `CC(=O)N[C@@H](CS)C(=O)O` [Nac, N-acetylcysteine], the “Lipid Median (median fold change from control)” value in experiment [1] (donor 1, 5 mM) is on record as −0.013; in experiment [1] (donor 2, 7.5 mM), −0.359. Further, the “lipid accumulation (in words)” value in experiment [1] (hepatocyte donor 1) is recorded as “did not reduce lipid accumulation”; in experiment [1] (hepatocyte donor 2), “reduced lipid accumulation but less than the previously described combinations”. Moreover, the entries for the “urea production (in words)” value in the experiment with Urea (hepatocyte donor 1) and with Urea (hepatocyte donor 2) were “No changes in urea production” and “slightly induce urea production”, respectively. In experiment [2], the “alpha SMA stained area (in words)” value was “reduced the alpha SMA stained area at a high level”. For the same molecule, the “LPS-stimulated TNFa secretion (in words)” value with TNFa was “decreased LPS-stimulated IL-6 and TNFa secretion”.
